Assays:
Assay type in all cases: in vivo
[1] = tested on: Sweetpotato Whitefly (Bemisia tabaci); test: Test Example 2: pesticidal effect of leaf dipping treatment on Sweetpotato Whitefly; conditions: composition of the compound and pyriproxyfen; cabbage leaf disk with eggs dipped 30 seconds, after 8 days; summary of Table 44
[2] = tested on: brown planthopper (Nilaparvata lugens); test: Test Example 1: pesticidal effect against brown planthopper by foliage spray treatment of rice; conditions: composition of the compound and pyriproxyfen; foliage spray on rice seedlings, third-instar larvae, after 5 days; summary of Table 43
[3] = tested on: brown planthopper (Nilaparvata lugens); test: Test Example 3: pesticidal effect against brown planthopper by foliage spray treatment of rice; conditions: composition of the compound and pyriproxyfen; foliage spray on rice seedlings, third-instar larvae, after 5 days; summary of Table 45
[4] = tested on: Sweetpotato Whitefly (Bemisia tabaci); test: Test Example 4: pesticidal effect of leaf dipping treatment on Sweetpotato Whitefly; conditions: composition of the compound and pyriproxyfen; cabbage leaf disk with eggs dipped 30 seconds, after 8 days; summary of Table 46

`FC(F)(F)c1ccc2oc(-c3ccncc3Cl)nc2c1` [Compound 18, 2-(3-chloropyridin-4-yl)-5-(trifluoromethyl)benzoxazole] was tested, and the “pesticidal efficacy on Sweetpotato Whitefly (Bemisia tabaci)” value (shortened to “pesticidal efficacy … (Bemisia tabaci)”) [1] was “high pesticidal efficacy” and the “pesticidal efficacy against brown planthopper (Nilaparvata lugens)” value (“pesticidal efficacy … (Nilaparvata lugens)” for short) [2] was “high pesticidal efficacy”.

With `FC(F)(F)COc1cnccc1-c1nc2cc(C(F)(F)F)ccc2o1` [Compound 39, 2-[3-(2,2,2-trifluoroethyl)oxypyridin-4-yl]-5-(trifluoromethyl)benzoxazole] the “pesticidal efficacy … (Nilaparvata lugens)” value [3] was “high pesticidal efficacy” and the “pesticidal efficacy … (Bemisia tabaci)” value [4] was “high pesticidal efficacy”.

With `CC(C)Oc1cnccc1-c1nc2cc(C(F)(F)F)ccc2o1` [Compound 70, 2-(3-isopropoxypyridin-4-yl)-5-(trifluoromethyl)benzoxazole] the “pesticidal efficacy … (Bemisia tabaci)” value [1] was “high pesticidal efficacy” and the “pesticidal efficacy … (Nilaparvata lugens)” value [2] was “high pesticidal efficacy”.

`FC(F)(F)Sc1ccc2oc(-c3ccncc3Cl)nc2c1` [Compound 77, 2-(3-chloropyridin-4-yl)-5-(trifluoromethylthio)benzoxazole] was tested, and the “pesticidal efficacy … (Bemisia tabaci)” value [1] was “high pesticidal efficacy” and the “pesticidal efficacy … (Nilaparvata lugens)” value [2] was “high pesticidal efficacy”.

`CCc1cnccc1-c1nc2cc(OC(F)(F)F)ccc2o1` [Compound 109, 2-(3-ethylpyridin-4-yl)-5-(trifluoromethoxy)benzoxazole] was tested, and the “pesticidal efficacy … (Bemisia tabaci)” value [1] was “high pesticidal efficacy” and the “pesticidal efficacy … (Nilaparvata lugens)” value [2] was “high pesticidal efficacy”.

With `CC(C)COc1cnccc1-c1nc2cc(C(F)(F)F)ccc2o1` [Compound 116, 2-(3-isobutoxypyridin-4-yl)-5-(trifluoromethyl)benzoxazole] the “pesticidal efficacy … (Nilaparvata lugens)” value [3] was “high pesticidal efficacy” and the “pesticidal efficacy … (Bemisia tabaci)” value [4] was “high pesticidal efficacy”.

For `CC(C)(C)COc1cnccc1-c1nc2cc(C(F)(F)F)ccc2o1` [Compound 117, 2-[3-(2,2-dimethylpropoxy)pyridin-4-yl]-5-(trifluoromethyl)benzoxazole], the “pesticidal efficacy … (Nilaparvata lugens)” value [3] was “high pesticidal efficacy” and the “pesticidal efficacy … (Bemisia tabaci)” value [4] was “high pesticidal efficacy”.

With `FC(F)(F)c1ccc2oc(-c3ccncc3-c3cccnc3)nc2c1` [Compound 128, 4-(5-trifluoromethyl-benzoxazole-2-yl)-[3,3]bipyridinyl] the “pesticidal efficacy … (Bemisia tabaci)” value [1] was “high pesticidal efficacy” and the “pesticidal efficacy … (Nilaparvata lugens)” value [2] was “high pesticidal efficacy”.

`FC(F)(F)c1cnc2oc(-c3ccncc3Cl)nc2c1` [Compound 139, 2-(3-chloropyridin-4-yl)-6-(trifluoromethyl)oxazolo[5,4-b]pyridine] was tested, and the “pesticidal efficacy … (Bemisia tabaci)” value [1] was “high pesticidal efficacy” and the “pesticidal efficacy … (Nilaparvata lugens)” value [2] was “high pesticidal efficacy”.

For `CCc1cnccc1-c1nc2cc(C(F)(F)F)cnc2o1` [Compound 143, 2-(3-ethylpyridin-4-yl)-6-(trifluoromethyl)oxazolo[5,4-b]pyridine], the “pesticidal efficacy … (Bemisia tabaci)” value [1] was “high pesticidal efficacy” and the “pesticidal efficacy … (Nilaparvata lugens)” value [2] was “high pesticidal efficacy”.

`CSc1cnccc1-c1nc2cc(C(F)(F)F)cnc2o1` [Compound 146, 2-(3-methylthiopyridin-4-yl)-6-(trifluoromethyl)oxazolo[5,4-b]pyridine] was tested, and the “pesticidal efficacy … (Bemisia tabaci)” value [1] was “high pesticidal efficacy” and the “pesticidal efficacy … (Nilaparvata lugens)” value [2] was “high pesticidal efficacy”.

In the case of `FC(F)(F)COc1cnccc1-c1nc2cc(C(F)(F)F)cnc2o1` [Compound 163], the “pesticidal efficacy … (Nilaparvata lugens)” value [3] is reported as “high pesticidal efficacy” and the “pesticidal efficacy … (Bemisia tabaci)” value [4] is reported as “high pesticidal efficacy”.

Source: patent US20120252804A1, “COMPOSITION AND METHOD FOR CONTROLLING ARTHROPOD PESTS” (SUMITOMO CHEMICAL COMPANY, LIMITED, priority 2009, published 2012)
